Data reported in US20040067531A1, “Methods of modulating protein tyrosine kinase function with substituted indolinone compounds” (SUGEN, INC., priority 1997, published 2004).

Assays:
HUV-EC-C cells; VEGF = test: HUVEC-VEGF 3H-thymidine incorporation assay; type: cell-based, human; details: Homo sapiens
Procedure: The following protocol is used to measure a compound's activity against VEGF and aFGF, all of which are expressed by HUVEC cells.
1. […] After cells have detached from the flask, add an equal volume of assay medium and transfer to a 50 mL sterile centrifuge tube (Fisher Scientific; catalogue no. 05-539-6).
2. Wash the cells with about 35 mL assay medium in the 50 mL sterile centrifuge tube by adding the assay medium, centrifuge for 10 minutes at approximately 200×g, aspirate the supernatant, and resuspend with 35 mL D-PBS. Repeat the wash two more times with D-PBS, resuspend the cells in about 1 mL assay medium/15 cm^2 of tissue culture flask. Assay medium consists of F12K medium (Gibco BRL; catalogue no. 21127-014)+0.5% heat-inactivated fetal bovine serum. Count the cells with a Coulter Counter® (Coulter Electronics, Inc.) and add assay medium to the cells to obtain a concentration of 0.8-1.0×10^5 cells/mL.
3. Add cells to 96-well flat-bottom plates at 100 μL/well or 0.8-1.0×10^4 cells/well; incubate ˜24h at 37° C., 5% CO^2.
1. Make up two-fold drug titrations in separate 96-well plates, generally 50 μM on down to 0 μM. Use the same assay medium as mentioned in day 0, step 2 above. Titrations are made by adding […] of drug at 200 μM (4× the final well concentration) to the top well of a particular plate column. Since the stock drug concentration is usually 20 mM in DMSO, the 200 μM drug concentration contains 2% DMSO.
Therefore, diluent made up to 2% DMSO in assay medium (F12K+0.5% fetal bovine serum) is used as diluent for the drug titrations in order to dilute the drug but keep the DMSO concentration constant. Add this diluent to the remaining wells in the column at 60 μL/well. Take 60 μL from the 120 μL of 200 μM drug dilution in the top well of the column and mix with the 60 μL in the second well of the column. Take 60 μL from this well and mix with the 60 μL in the third well of the column, and so on until two-fold titrations are completed. When the next-to-the-last well is mixed, take 60 μL of the 120 μL in this well and discard it. Leave the last well with 60 μL of DMSO/media diluent as a non-drug-containing control. Make 9 columns of titrated drug, enough for triplicate wells each for 1) VEGF (obtained from Pepro Tech Inc., catalogue no. 100-200, 2) endothelial cell growth factor (ECGF) (also known as acidic fibroblast growth factor, or aFGF) (obtained from Boehringer Mannheim Biochemica, catalogue no. 1439 600); or, 3) human PDGF B/B (1276-956, Boehringer Mannheim, Germany) and assay media control. ECGF comes as a preparation with sodium heparin.
2. Transfer 50 μL/well of the drug dilutions to the 96-well assay plates containing the 0.8-1.0×10^4 cells/100 μL/well of the HUV-EC-C cells from day 0. and incubate ˜2 h at 37° C., 5% CO2.
3. […] As with the drugs, the growth factor concentrations are 4× the desired final concentration. Use the assay media from day 0 step 2 to make the concentrations of growth factors. Incubate approximately 24 hours at 37° C., 5% CO2. Each well will have 50 μL drug dilution, 50 μL growth factor or media, and 100 μL cells, =200 μL/well total. Thus the 4× concentrations of drugs and growth factors become 1× once everything has been added to the wells.
1. Add ^3H-thymidine (Amersham; catalogue no. TRK-686) at 1 μCi/well (10 μL/well Of 100 μCi/mi solution made up in RPMI media +10% heat-inactivated fetal bovine serum) and incubate μ24 h at 37° C., 5% CO2. RPMI was obtained from Gibco BRL, catalogue no. 11875-051.
1. Freeze plates overnight at […]
1. Thaw plates and harvest with a 96-well plate harvester (Tomtec Harvester 96®) onto filter mats (Wallac; catalogue no. 1205-401); read counts on a Wallac Betaplate™ liquid scintillation counter.
The IC50 values were measured for several of the compounds of the invention.

[1] = tested on: HUV-EC-C cells; aFGF (ECGF); test: HUVEC-aFGF 3H-thymidine incorporation assay; type: cell-based, human; details: Homo sapiens
Procedure: Use the same assay medium as mentioned in day 0, step 2 above. Titrations are made by adding 90 μL/well of drug at 200 μM (4× the final well concentration) to the top well of a particular plate column. Since the stock drug concentration is usually 20 mM in DMSO, the 200 μM drug concentration contains 2% DMSO.
Therefore, diluent made up to 2% DMSO in assay medium (F12K+0.5% fetal bovine serum) is used as diluent for the drug titrations in order to dilute the drug but keep the DMSO concentration constant. Add this diluent to the remaining wells in the column at 60 μL/well. Take 60 μL from the 120 μL of 200 μM drug dilution in the top well of the column and mix with the 60 μL in the second well of the column. Take 60 μL from this well and mix with the 60 μL in the third well of the column, and so on until two-fold titrations are completed. When the next-to-the-last well is mixed, take 60 μL of the 120 μL in this well and discard it. Leave the last well with 60 μL of DMSO/media diluent as a non-drug-containing control. Make 9 columns of titrated drug, enough for triplicate wells each for 1) VEGF (obtained from Pepro Tech Inc., catalogue no. […] ECGF comes as a preparation with sodium heparin.
In triplicate, add 50 μL/well of 80 μg/mL VEGF, 20 ng/mL ECGF, or media control to each drug condition. As with the drugs, the growth factor concentrations are 4× the desired final concentration. Use the assay media from day 0 step 2 to make the concentrations of growth factors.
Freeze plates overnight at 20° C.

[2] = tested on: 3T3 cell line genetically engineered to express human PDGF-R; test: PDGF-induced BrdU incorporation assay; type: cell-based; details: NIH3T3; 3T3 cells expressing human PDGF-R, PDGF 3.8 nM; read-out: PDGF-Induced BrdU Incorp. IC50
Procedure: (1) PDGF: human PDGF B/B; 1276-956, Boehringer Mannheim, Germany
(8) 3T3 cell line genetically engineered to express human PDGF-R.
(§1) 1. Cells were seeded at 8000 cells/well in DMEM, 10% CS, 2 mM Gln in a 96 well plate. Cells were incubated overnight at 37° C. in 5% CO2.
(§2) 2. After 24 hours, the cells were washed with PBS, and then were serum starved in serum free medium (0% CS DMEM with 0.1% BSA) for 24 hours.
(§3) 3. On day 3, ligand (PDGF=3.8 nM, prepared in DMEM with 0.1% BSA) and test compounds were added to the cells simultaneously. The negative control wells received serum free DMEM with 0.1% BSA only; the positive control cells received the ligand (PDGF) but no test compound. Test compounds were prepared in serum free DMEM with ligand in a 96 well plate, and serially diluted for 7 test concentrations.
(§4) 4. After 20 hours of ligand activation, diluted BrdU labeling reagent (1:100 in DMEM, 0.1% BSA) was added and the cells were incubated with BrdU (final concentration=10 μM) for 1.5 hours.
(§5) 5. After incubation with labeling reagent, the medium was removed by decanting and tapping the inverted plate on a paper towel. FixDenat solution was added (50 μL/well) and the plates were incubated at room temperature for 45 minutes on a plate shaker.
(§6) 6. The FixDenat solution was thoroughly removed by decanting and tapping the inverted plate on a paper towel. Milk was added (5% dehydrated milk in PBS, 200 μL/well) as a blocking solution and the plate was incubated for 30 minutes at room temperature on a plate shaker.
(§7) 7. The blocking solution was removed by decanting and the wells were washed once with PBS. Anti-BrdU-POD solution (1:100 dilution in PBS, 1% BSA) was added (100 μL/well), and the plate was incubated for 90 minutes at room temperature on a plate shaker.
(§8) 8. The antibody conjugate was thoroughly removed by decanting and rinsing the wells 5 times with PBS, and the space was dried by inverting and tapping on a paper towel.
(§9) 9. TMB substrate solution was added (100 μL/well) and incubated for 20 minutes at room temperature on a plate shaker until color development was sufficient for photometric detection.
(§10) 10. The absorbance of the samples were measured at 410 nm (in “dual wavelength” mode with a filter reading at 490 nm, as a reference wavelength) on a Dynatech ELISA plate reader.
(§11) The IC50 values were measured for several of the compounds of the invention. These values are depicted in Table 10.

[3] = tested on: FGF-induced BrdU incorporation; test: FGF-induced BrdU incorporation assay; type: cell-based; details: read-out: FGF-Induced BrdU Incorp. IC50
Procedure: PDGF-, FGF-, and EGF-Induced BRDU Incorporation Assay
as §1, §2, §3, §4, §5, §6, §7, §8, §9, §10, §11

Row | SMILES | IC50 (HUV-EC-C cells; VEGF) | IC50 [1] | IC50 [2] | IC50 [3]
1 | Cc1c[nH]c(C=C2C(=O)Nc3cccc(C)c32)c1CCC(=O)O [IN-029, 3-[2-(4-Methyl-2-oxo-1,2-dihydro-indol-3-ylidenemethyl)-4-methyl-1H-pyrrol-3-yl]-propionic acid] | < 70 nM | 350 nM | 24800 nM | > 50000 nM
2 | Cc1c[nH]c(C=C2C(=O)Nc3cc(Cl)ccc32)c1CCC(=O)O [IN-030, 3-[2-(6-Chloro-2-oxo-1,2-dihydro-indol-3-ylidenemethyl)-4-methyl-1H-pyrrol-3-yl]-propionic acid] | 16 nM | 260 nM | 7900 nM | > 50000 nM
